Reference: ChEMBL document CHEMBL3046027, “In vitro and in vivo antifungal activity of synthetic pure isothiocyanates against Sclerotinia sclerotiorum” (Pest Manag Sci, 2011)

How the values were obtained:
Sclerotinia sclerotiorum [1] = assay: Antifungal activity against Sclerotinia sclerotiorum assessed as inhibition of mycelial growth in contact phase at 708 umol/l measured at 20 degC after 5 days; assay type: functional; conditions: 120 h, read-out: GI
Sclerotinia sclerotiorum [2] = assay: Antifungal activity against Sclerotinia sclerotiorum assessed as inhibition of mycelial growth in volatile phase at 39 umol/l measured at 20 degC after 5 days; assay type: functional; conditions: 120 h, read-out: GI
Sclerotinia sclerotiorum [3] = assay: Fungistatic activity in Sclerotinia sclerotiorum assessed as inhibition of mycelial growth in contact phase measured at 20 degC after 5 days; assay type: functional, organism-based; conditions: 120 h
Sclerotinia sclerotiorum [4] = assay: Antifungal activity against Sclerotinia sclerotiorum assessed as inhibition of germination in volatile phase at 79 umol/l measured at 20 degC after 5 days; assay type: functional; conditions: 120 h
Sclerotinia sclerotiorum [5] = assay: Antifungal activity against Sclerotinia sclerotiorum assessed as inhibition of germination in volatile phase at 786 umol/l measured at 20 degC after 5 days; assay type: functional; conditions: 120 h
Sclerotinia sclerotiorum [6] = assay: Fungistatic activity in Sclerotinia sclerotiorum assessed as viability in volatile phase at 786 umol/l measured at 20 degC after 5 days relative to control; assay type: functional; conditions: 120 h, read-out: GI
Sclerotinia sclerotiorum [7] = assay: Antifungal activity against Sclerotinia sclerotiorum assessed as inhibition of mycelial growth in contact phase at 2358 umol/l measured at 20 degC after 5 days; assay type: functional; conditions: 120 h, read-out: GI
Sclerotinia sclerotiorum [8] = assay: Fungistatic activity in Sclerotinia sclerotiorum assessed as inhibition of mycelial growth in volatile phase measured at 20 degC after 5 days; assay type: functional, organism-based; conditions: 120 h
Sclerotinia sclerotiorum [9] = assay: Fungistatic activity in Sclerotinia sclerotiorum assessed as inhibition of carpogenic germination in volatile phase at 393 umol/l measured at 20 degC after 5 days relative to control; assay type: functional; conditions: 120 h
Sclerotinia sclerotiorum [10] = assay: Antifungal activity against Sclerotinia sclerotiorum assessed as inhibition of mycelial growth in volatile phase at 393 umol/l measured at 20 degC after 5 days; assay type: functional; conditions: 120 h, read-out: GI
Sclerotinia sclerotiorum [11] = assay: Antifungal activity against Sclerotinia sclerotiorum assessed as inhibition of mycelial growth in contact phase at 550 umol/l measured at 20 degC after 5 days; assay type: functional; conditions: 120 h, read-out: GI
Sclerotinia sclerotiorum [12] = assay: Fungistatic activity in Sclerotinia sclerotiorum assessed as sclerotial viability measured at 20 degC after 5 days; assay type: functional, organism-based; conditions: 120 h
Sclerotinia sclerotiorum [13] = assay: Antifungal activity against Sclerotinia sclerotiorum assessed as inhibition of germination in volatile phase at 39 umol/l measured at 20 degC after 5 days; assay type: functional; conditions: 120 h
Sclerotinia sclerotiorum [14] = assay: Antifungal activity against Sclerotinia sclerotiorum assessed as inhibition of germination in volatile phase at 393 umol/l measured at 20 degC after 5 days; assay type: functional; conditions: 120 h
Sclerotinia sclerotiorum [15] = assay: Fungistatic activity in Sclerotinia sclerotiorum assessed as inhibition of mycelial growth in volatile phase at 550 umol/l measured at 20 degC after 5 days relative to control; assay type: functional; conditions: 120 h, read-out: GI
Sclerotinia sclerotiorum [16] = assay: Antifungal activity against Sclerotinia sclerotiorum assessed as inhibition of mycelial growth in volatile phase at 550 umol/l measured at 20 degC after 5 days; assay type: functional; conditions: 120 h, read-out: GI
Sclerotinia sclerotiorum [17] = assay: Fungistatic activity in Sclerotinia sclerotiorum assessed as inhibition of carpogenic germination in volatile phase at 79 umol/l measured at 20 degC after 5 days relative to control; assay type: functional; conditions: 120 h
Sclerotinia sclerotiorum [18] = assay: Fungistatic activity in Sclerotinia sclerotiorum assessed as inhibition of carpogenic germination in volatile phase at 786 umol/l measured at 20 degC after 5 days relative to control; assay type: functional; conditions: 120 h
Sclerotinia sclerotiorum [19] = assay: In vivo antifungal Sclerotinia sclerotiorum in Pepper (Capsicum annuum L. cv. Sera Demre) assessed as inhibition of mycelial growth in volatile phase at 158 umol/L measured after 10 to 14 weeks; assay type: functional
Sclerotinia sclerotiorum [20] = assay: Antifungal activity against Sclerotinia sclerotiorum assessed as inhibition of mycelial growth in contact phase at 786 umol/l measured at 20 degC after 5 days; assay type: functional; conditions: 120 h, read-out: GI
Sclerotinia sclerotiorum [21] = assay: Antifungal activity against Sclerotinia sclerotiorum assessed as inhibition of mycelial growth in contact phase at 1572 umol/l measured at 20 degC after 5 days; assay type: functional; conditions: 120 h, read-out: GI
Sclerotinia sclerotiorum [22] = assay: Fungistatic activity in Sclerotinia sclerotiorum assessed as inhibition of mycelial growth in contact phase at 2358 umol/l measured at 20 degC after 5 days relative to control; assay type: functional; conditions: 120 h, read-out: GI
Sclerotinia sclerotiorum [23] = assay: Antifungal activity against Sclerotinia sclerotiorum assessed as inhibition of germination in volatile phase at 236 umol/l measured at 20 degC after 5 days; assay type: functional; conditions: 120 h
Sclerotinia sclerotiorum [24] = assay: Antifungal activity against Sclerotinia sclerotiorum assessed as inhibition of mycelial growth in volatile phase at 79 umol/l measured at 20 degC after 5 days; assay type: functional; conditions: 120 h, read-out: GI
Sclerotinia sclerotiorum [25] = assay: In vivo antifungal Sclerotinia sclerotiorum in Pepper (Capsicum annuum L. cv. Sera Demre) assessed as inhibition of mycelial growth in volatile phase at 79 umol/L measured after 10 to 14 weeks; assay type: functional
Sclerotinia sclerotiorum [26] = assay: Antifungal activity against Sclerotinia sclerotiorum assessed as inhibition of mycelial growth in volatile phase at 786 umol/l measured at 20 degC after 5 days; assay type: functional; conditions: 120 h, read-out: GI

**Q.** Which inhibition of growth at 708 µM (Sclerotinia sclerotiorum [1]) does the source give for CCN=C=S [ETHYL ISOTHIOCYANATE] here?
**A.** 56.2%

**Q.** What about the inhibition of growth at 39 µM (Sclerotinia sclerotiorum [2]) of the same molecule?
**A.** 5%

**Q.** And the EC50 (Sclerotinia sclerotiorum [3])?
**A.** 653 µM

**Q.** And the inhibition at 79 µM (Sclerotinia sclerotiorum [4])?
**A.** 26.7%

**Q.** What about the inhibition at 786 µM (Sclerotinia sclerotiorum [5]) of the same molecule?
**A.** 100%

**Q.** What about the inhibition of growth at 786 µM (Sclerotinia sclerotiorum [6]) of the same molecule?
**A.** 100%

**Q.** And the inhibition of growth at 2358 µM (Sclerotinia sclerotiorum [7])?
**A.** 100%

**Q.** And the EC50 (Sclerotinia sclerotiorum [8])?
**A.** 157 µM

**Q.** And the inhibition at 393 µM (Sclerotinia sclerotiorum [9])?
**A.** 62.5%

**Q.** What about the inhibition of growth at 393 µM (Sclerotinia sclerotiorum [10]) of the same molecule?
**A.** 56%

**Q.** And the inhibition of growth at 550 µM (Sclerotinia sclerotiorum [11])?
**A.** 34.2%

**Q.** And the EC50 (Sclerotinia sclerotiorum [12])?
**A.** 212 µM

**Q.** What about the inhibition at 39 µM (Sclerotinia sclerotiorum [13]) of the same molecule?
**A.** 0%

**Q.** What about the inhibition at 393 µM (Sclerotinia sclerotiorum [14]) of the same molecule?
**A.** 66.7%

**Q.** What about the inhibition of growth at 550 µM (Sclerotinia sclerotiorum [15]) of the same molecule?
**A.** 100%

**Q.** And the inhibition of growth at 550 µM (Sclerotinia sclerotiorum [16])?
**A.** 100%

**Q.** And the inhibition at 79 µM (Sclerotinia sclerotiorum [17])?
**A.** 52.5%

**Q.** What about the inhibition at 786 µM (Sclerotinia sclerotiorum [18]) of the same molecule?
**A.** 87.5%

**Q.** What about the inhibition in vivo at 158 µM (Sclerotinia sclerotiorum [19]) of the same molecule?
**A.** 70%

**Q.** And the inhibition of growth at 786 µM (Sclerotinia sclerotiorum [20])?
**A.** 69.5%

**Q.** And the inhibition of growth at 1572 µM (Sclerotinia sclerotiorum [21])?
**A.** 81.5%

**Q.** What about the inhibition of growth at 2358 µM (Sclerotinia sclerotiorum [22]) of the same molecule?
**A.** 100%

**Q.** What about the inhibition at 236 µM (Sclerotinia sclerotiorum [23]) of the same molecule?
**A.** 46.7%

**Q.** And the inhibition of growth at 79 µM (Sclerotinia sclerotiorum [24])?
**A.** 30.8%

**Q.** And the inhibition in vivo at 79 µM (Sclerotinia sclerotiorum [25])?
**A.** 38.3%

**Q.** What about the inhibition of growth at 786 µM (Sclerotinia sclerotiorum [26]) of the same molecule?
**A.** 100%
